Values after ≈ are worked out from the molar mass of the structure shown.
Legend:
[1] = target: T1, Sphingosine 1-phosphate receptor 2 (Homo sapiens, UniProt O95136); experiment: Antagonist activity at S1P2 (unknown origin); assay type: functional
[2] = Lipophilicity, logD of the compound at pH 7.4 by chromatographic method; settings: buffer
[3] = target: T1, Sphingosine 1-phosphate receptor 2; experiment: Antagonist activity at human S1P2 receptor expressed in CHO cells assessed as inhibition of [35S]GTPgammaS binding
[4] = target: T1, Sphingosine 1-phosphate receptor 2; experiment: Displacement of sphingosine D-erythro [3-3H] I- phosphate from human S1P2 receptor expressed in CHO cell membrane
[5] = target: T1, Sphingosine 1-phosphate receptor 2; experiment: Agonist activity at human S1P2 receptor expressed in CHO cells assessed as increase in calcium flux
[6] = target: T1, Sphingosine 1-phosphate receptor 2; experiment: Antagonist activity at human S1P2 receptor expressed in CHO cells assessed as inhibition of calcium flux
[7] = target: Sphingosine 1-phosphate receptor 1 (Homo sapiens, UniProt P21453); experiment: Antagonist activity at human S1P1 receptor expressed in CHO cells assessed as inhibition of calcium flux; assay type: functional, cell-based
Sphingosine 1-phosphate receptor 1, sequence (P21453 whole entry): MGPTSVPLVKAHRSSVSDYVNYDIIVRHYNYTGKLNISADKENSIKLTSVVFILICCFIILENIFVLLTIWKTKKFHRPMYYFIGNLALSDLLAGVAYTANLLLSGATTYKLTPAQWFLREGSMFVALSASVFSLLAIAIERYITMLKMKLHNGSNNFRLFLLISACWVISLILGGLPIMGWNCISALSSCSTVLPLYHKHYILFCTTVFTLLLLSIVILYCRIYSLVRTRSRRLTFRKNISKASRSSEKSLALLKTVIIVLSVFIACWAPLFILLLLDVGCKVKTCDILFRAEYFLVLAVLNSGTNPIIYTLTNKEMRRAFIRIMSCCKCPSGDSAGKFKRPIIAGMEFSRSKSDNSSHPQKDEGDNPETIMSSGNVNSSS

PXR = target: T2, PXR (Homo sapiens, UniProt O75469); experiment: Activation of PXR in human DPX2 cells at 10 uM incubated for 24 hrs relative to control; assay type: ADME, cell-based; settings: read-out: Activity
T2 sequence (O75469 whole entry): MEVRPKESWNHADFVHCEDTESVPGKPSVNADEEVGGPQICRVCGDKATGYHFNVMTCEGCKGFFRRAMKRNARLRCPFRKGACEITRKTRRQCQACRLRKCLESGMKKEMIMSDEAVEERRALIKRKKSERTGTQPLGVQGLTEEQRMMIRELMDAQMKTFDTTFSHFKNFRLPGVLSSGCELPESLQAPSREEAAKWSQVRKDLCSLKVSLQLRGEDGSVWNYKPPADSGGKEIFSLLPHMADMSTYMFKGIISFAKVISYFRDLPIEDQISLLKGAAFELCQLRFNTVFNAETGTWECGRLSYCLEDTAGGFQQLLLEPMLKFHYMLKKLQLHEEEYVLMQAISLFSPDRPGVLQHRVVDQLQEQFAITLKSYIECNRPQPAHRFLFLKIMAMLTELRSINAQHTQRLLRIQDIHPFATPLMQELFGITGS

CYP450 = CYP450 (Homo sapiens, UniProt P04798+P05177+P05181+P08684+P10632+P10635+P11509+P11712+P13584+P20813+P20815+P20853+P24462+P24903+P33260+P33261+P51589+P78329+P98187+Q02928+Q08477+Q16678+Q16696+Q5TCH4+Q6VVX0+Q7Z449+Q8TAV3+Q96SQ9+Q9HB55); experiment: Inhibition of CYP450 in human liver microsomes; assay type: ADME
Cytochrome P450 3A4 = Cytochrome P450 3A4 (Homo sapiens, UniProt P08684); experiment: Induction of CYP3A4 in human cryopreserved hepatocytes assessed as mRNA expression at 10 uM incubated for 72 hrs relative to control; assay type: ADME, cell-based, Hepatocyte
Cytochrome P450 3A4, sequence (P08684 whole entry): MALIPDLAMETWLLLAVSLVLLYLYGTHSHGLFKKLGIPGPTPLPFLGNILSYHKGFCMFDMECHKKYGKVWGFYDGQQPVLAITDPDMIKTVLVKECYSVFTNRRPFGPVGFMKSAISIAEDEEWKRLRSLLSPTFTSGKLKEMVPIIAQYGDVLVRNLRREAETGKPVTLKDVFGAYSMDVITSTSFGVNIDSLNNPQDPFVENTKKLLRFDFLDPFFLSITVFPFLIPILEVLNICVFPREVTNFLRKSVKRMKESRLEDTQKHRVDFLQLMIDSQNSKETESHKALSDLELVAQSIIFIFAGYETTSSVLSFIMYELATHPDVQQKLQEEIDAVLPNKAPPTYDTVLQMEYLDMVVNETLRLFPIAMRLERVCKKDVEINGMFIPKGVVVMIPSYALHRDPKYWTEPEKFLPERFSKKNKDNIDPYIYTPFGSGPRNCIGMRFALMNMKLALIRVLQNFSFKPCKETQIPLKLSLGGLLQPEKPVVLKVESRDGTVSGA

cells = settings: Homo sapiens, HFL1
[8] = target: T1, Sphingosine 1-phosphate receptor 2
[9] = target: T1, Sphingosine 1-phosphate receptor 2; remark: listed apart in the source
[10] = Efflux ratio of apparent permeability across apical to basolateral side in human Caco-2 cells at pH 6.5 at 10 uM incubated for 60 mins by UHPLC analysis; settings: Caco-2, pH 6.5
[11] = Apparent permeability across apical to basolateral side in human Caco-2 cells at pH 6.5 at 10 uM incubated for 60 mins by UHPLC analysis; settings: Caco-2, pH 6.5
[12] = Volume of distribution at steady state in CD1 mouse at 1 mg/kg, iv measured up to 24 hrs by LC-MS/MS analysis; settings: in vivo
[13] = Efflux ratio of apparent permeability across apical to basolateral side in MDCK-MDR1 cells at 10 uM incubated for 1 hr by LC-MS/MS analysis; settings: dog
in vivo = settings: CD1, mouse, po, 5 mg/kg
[14] = Thermodynamic solubility of compound at pH 7.4; settings: buffer
[15] = Apparent permeability across apical to basolateral side in MDCK-MDR1 cells at 10 uM incubated for 1 hr by LC-MS/MS analysis; settings: dog
[16] = Unbound plasma concentration in CD1 mouse at 5 mg/kg, po or 1 mg/kg, iv measured up to 24 hrs by LC-MS/MS analysis
[17] = Half life in CD1 mouse at 1 mg/kg, iv measured up to 24 hrs by LC-MS/MS analysis; settings: in vivo

T1 sequence (O95136 whole entry): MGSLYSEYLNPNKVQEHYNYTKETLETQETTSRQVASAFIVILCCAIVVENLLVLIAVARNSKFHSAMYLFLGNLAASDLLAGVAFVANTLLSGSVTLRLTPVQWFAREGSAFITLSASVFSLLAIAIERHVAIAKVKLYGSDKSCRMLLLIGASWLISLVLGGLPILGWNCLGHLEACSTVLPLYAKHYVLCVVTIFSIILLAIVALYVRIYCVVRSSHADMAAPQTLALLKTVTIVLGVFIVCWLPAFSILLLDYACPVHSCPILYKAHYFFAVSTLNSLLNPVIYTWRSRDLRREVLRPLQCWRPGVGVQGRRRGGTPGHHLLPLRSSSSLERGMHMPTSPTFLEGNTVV

SMILES	chromatographic logD [2]	IC50 [3]	IC50 [4]	IC50 [5]	IC50 [6]	IC50 [7]	other results
Cc1nn(C)c2nc(NNC(=O)Nc3cc(Cl)nc(Cl)c3)cc(C(C)C)c12	–	–	–	–	–	–	IC50 [1]: 17 nM
COc1cc(OC)c(NC(=O)Cc2cn(C)c3ccccc23)cc1Cl	5.91	19200 nM	3790 nM	> 23300 nM	> 8130 nM	> 19900 nM	–
COc1cc(OC)c(NC(=O)Cc2nn(CC(=O)O)c(=O)c3ccccc23)cc1Cl	–	–	–	–	–	> 19900 nM	–
C[C@H](C(=O)O)n1nc(Cn2cc3cc(OCC4CC4)c(Cl)cc3n2)c2ccccc2c1=O	–	–	–	–	–	–	activity at 24 h, 10 µM (PXR): 5.7%; IC50 (CYP450): > 100000 nM; Activity (Cytochrome P450 3A4): 4.4%
CCn1nc(CC(=O)Nc2ccc(OC(F)(F)F)c(Cl)c2)c2ccccc2c1=O	5.42	473 nM	–	–	199 nM	–	–
COc1ccc(NC(=O)Cc2nn(CC(=O)O)c(=O)c3ccccc23)c(OC)c1	1.13	–	–	> 23300 nM	> 19900 nM	–	–
COc1cc(OC)c(NC(=O)Cc2cn(CC(=O)O)c3ccccc23)cc1Cl	2.13	17700 nM	10700 nM	> 23300 nM	> 6640 nM	> 19900 nM	–
CCOc1cc2cn(Cc3nn(CC(=O)O)c(=O)c4ccccc34)nc2cc1Cl	–	113 nM	–	–	149 nM	–	IC50 (cells): 34 nM; IC50 [8]: 23 nM; IC50 [9]: 1620 nM
COc1cc(OC)c(NC(=O)Cn2nc(CC(=O)O)c3ccccc32)cc1Cl	1.86	8980 nM	2010 nM	> 23300 nM	3360 nM	> 19900 nM	–
CC(C(=O)O)c1nn(Cc2cn3cc(OCC4CC4)c(C(F)(F)F)cc3n2)c2ccccc2c1=O (racemic)	2.99	51 nM	–	–	3.4 nM	–	efflux ratio at 1 h, 10 µM [10]: 0.4; Papp A→B at 1 h, 10 µM [11]: 15 ×10⁻⁶ cm/s; Vd at 24 h [12]: 0.66 L/kg; IC50 (cells): 0.7 nM; efflux ratio at 1 h, 10 µM [13]: 3.7; IC50 [8]: 5 nM; Cmax at 24 h (in vivo): 3520 ng/mL; solubility thermodynamic [14]: 221 µg/mL (≈ 454 µM); Papp A→B at 1 h, 10 µM [15]: 2.5 ×10⁻⁶ cm/s; fraction unbound at 24 h [16]: 0.007; IC50 [9]: 56 nM; half-life at 24 h [17]: 1.9 h

Reference: ChEMBL document CHEMBL5046225, “Discovery and Optimization of Orally Bioavailable Phthalazone and Cinnolone Carboxylic Acid Derivatives as S1P2 Antagonists against Fibrotic Diseases” (J Med Chem, 2021)
